Reference: patent US11045435B2, “Methods for treating ocular diseases” (NATUREWISE BIOTECH & MEDICALS CORPORATION, priority 2016, dated 2021)

How the values were obtained:
HUVECs = experiment: MTT viability / proliferation of HUVECs; type: cell-based, human; conditions: 72 h
Method: ARPE-19 cells were grown in DMEM/F12 medium supplemented with 10% FBS, 100 units/ml penicillin G, and 100 μg/ml streptomycin sulfate. HUVECs were grown in vascular cell basal medium supplemented with endothelial cell growth kit. Cells were incubated in a humidified incubator at 37° C. under 5% CO2 and 95% air.
MTT assay was used to measure the viability of ARPE-19 cells and HUVECs. 2×10^5 ARPE-19 cells or 5×10^4 HUVECs were seeded in 96-well plates ([…]) and allowed to grow overnight. Negative control was prepared by adding 100 μl medium without cells. The cells were then treated with fresh medium with COMPOUND I (0.03, 0.1, 0.3, 1, 3 and 10 μg/ml) and/or oxidants (NaIO3, H2O2, t-BHP and NaN3) for 12, 24, or 72 hours (200 μl/well). The vehicle control group was treated with vehicle. 20 μl MTT (5 mg/ml) was added to wells, and incubated for another 4 h. After incubation, the medium was discarded and 100 μl DMSO was added to solubilize formazan produced from MTT by the viable cells. Absorbance was measured at 570 nm using a microplate reader (Bio-Rad Laboratories, Inc., CA). Cells viability was calculated according to the following formula: Viability of cells (%)=(absorbance in tested sample−absorbance in negative control)/(absorbance in vehicle control−absorbance in negative control)×100%.

[1] = tested on: Rabbit with Experimental Ocular Hypertension; experiment: Ocular blood flow (colored microspheres) in rabbit with experimental ocular hypertension; type: in vivo, New Zealand white rabbits; conditions: 1% topical, 50 μl
Method: Rabbits were anesthetized with 35 mg/kg ketamine and 5 mg/kg Balanzine (10% xylazine) by intramuscular injection. Half of the initial dose was given every one hour thereafter. The left ventricle was cannulated through the right carotid artery for injection of colored microspheres and the femoral artery was cannulated for collection of blood samples. The left eye was treated with one drop of proparacaine hydrochloride ophthalmic solution (Bausch & Lomb, Inc., Tampa, Fla., USA). The needle was inserted directly into the anterior chamber of the left eye, which was connected to the 40 mmHg saline manometer. The ocular hypertensive model reduced the ocular blood flow to approximately one third of the normal valued. […] The ocular blood flow was measured by colored microspheres at 0, 30, 60 and 120 minutes after treatment with COMPOUND I or vehicle. […] The blood sample was collected in a heparinized tube and the volume was recorded. […]
The details of sample processing and microspheres counting were provided by E-Z Trac (Los Angeles, Calif., USA). […] The number of microspheres was counted by the hemocytometer under the microscope. […] The protocol thereafter was the same as that used to process the blood samples, and the microspheres were counted.
The blood flow of each tissue at a certain time point was calculated according to the following formula: Qm=(Cm×Qt)/Cr. […]

mouse model of CNV = experiment: Laser-induced CNV mouse model (FP, FFA, OCT); type: in vivo, C57BL/6J mice
Method: Male C57BL/6J mice (BioLASCO Taiwan Co.) were maintained within the Animal Center at Taipei Medical University (TMU) and the CNV study was performed in accordance with ARVO statement and the experimental protocols were approved by the Institutional Animal Care and Use Committee of TMU (LAC-2017-0130). To create CNV, mice were anesthetized by injection of Balanzine (10% xylazine) (10 mg/kg) and Ketamine (80 mg/kg). The rupture of Bruch's membrane-choroid was achieved by laser photocoagulation (Micron III system, Phoenix Research Laboratories, Pleasanton, Calif.) using CNV laser burns of four spots (0.1-second duration, 250 mW) approximately two disc-diameters away from the optic disc. […]
The OCT module of the Micron III (Phoenix Research Laboratories, Pleasanton, Calif.) retinal imaging microscope was used to obtain images from retinal layers. […] Three retinal layers were defined and measured in the C57BL/6 mice included in this study: the inner layer, which comprises the retinal nerve fiber layer (RNFL), the ganglion cell layer (GCL), and the inner plexiform layer (IPL); the middle layer, which comprises the inner nuclear layer (INL), the outer plexiform layer (OPL), the outer nuclear layer (ONL), and the outer limiting membrane (OLM); and the outer layer, which comprises the inner and outer segments (IS/OS) of the photoreceptors and the retinal pigment epithelium.

COc1ccc(COc2c(/C=C/C(=O)NO)ccc(OC)c2CC=C(C)C)cc1 [COMPOUND I]
effect on cell growth (HUVECs; 0.03 μg/ml to 1 μg/ml): did not affect cell growth
inhibition at 10 µg/mL (HUVECs; Homo sapiens, HUVEC, 10 μg/ml): 47%
blood flow in ciliary body and choroid ([1]; 30 minutes and 60 minutes after instillation): markedly increased
blood flow in all tissues (iris, ciliary body, retina, choroid) ([1]; 120 minutes after instillation): significantly increased
leaky area (FFA) (mouse model of CNV; 25 mg/kg/d oral for 7 or 28 days): significantly reduced
tissue hyperplasia resulted from laser damage (mouse model of CNV; 25 mg/kg/d oral, day 7 and day 28): ameliorated
